Measurements: US6479466B1, “Compositions for treating viral infections, and methods therefor” (University of Maryland, priority 1999, dated 2002)
Counter-ions that a name gives are not always drawn. Like-named read-outs stand apart in the source and are kept apart here.

How the values were obtained:
[1] = test system: HTLV-IIIB; assay: p24 antigen production in PHA-activated PBMCs infected with HTLV-IIIB; format: cell-based, HIV-1; details: for IC90: read-out: IC90 (concentration of nucleoside analog that reduced the p24 antigen value of the untreated control by 90%)
Source text: The antiviral activities of RV alone and in combination with nucleoside analogs were investigated in PHA-stimulated PBMCs from seronegative donors. RV, ddC, ddI, and AZT were purchased from Sigma (St. Louis, Mo.). The HIV-1 T-cell line adapted isolate HTLV-IIIB was obtained from Dr. Gallo, at the National Institutes of Health AIDS Research and Reference Reagent Program (Catalog #398, Rockville, Md.). Primary strains of HIV-1 were isolated by coculturing 10^7 patient PBMC with an equal number of PHA-stimulated PBMC from a normal donor. Titration of stocks and MT-2 phenotype determination were carried out as described (ACTG Virology Manual, NIH Pub No. 94 3828, 1994). The SI phenotype was determined by assessing viral growth and syncytia formation in the MT-2 cell line obtained from Dr. Richman at the National Institutes of Health AIDS Research and Reference Reagent Program (Catalog #237, Rockville, Md.).
Primary PBMCs were separated from whole blood of HIV seronegative donors by density centrifugation over Ficoll-Hypaque (Sigma). The culture medium consisted of RPMI supplemented with 10% fetal bovine serum (FBS), 2 mM glutamine and penicillin/streptomycin (Gibco, Grand Island, N.Y.).
For infection studies involving PBMCs, cells were stimulated with 2.5 or 10 μg/ml phytohemagglutinin (PHA; Boehringer Mannheim, Indianapolis, Ind.) for 3 days. Stimulated PBMCs were infected by incubation with virus at a multiplicity of infection of 1000 TCID50/10^6 PBMC for 2 hours. PBMCs were then washed three times with PBS and cultured in 5% CO2 at 37° C., in RPMI/10% FBS supplemented with 10 units/ml IL-2 (Boehringer Mannheim) and drugs as appropriate. PBMCs were seeded in 96-well flat-bottom plates at a density of 2×10^5 PBMCs/200 μl. Following 3 days of culture half of the medium was replaced with fresh medium containing IL-2 and drugs. After 7 days of culture, HIV-1 p24 antigen production in the culture supernatant was assayed by ELISA (Coulter, Hialeah, Fla.). The concentration of nucleoside analog, alone and in combination with resveratrol, that reduced the p24 antigen value of the untreated control by 90% (IC90) was calculated by using nonparametric regression analysis. The analysis used the median-effect equation, Fa=1/[1+(Dm/D)]^m, where D is the dose, Fa is the fraction affected, and Dm is the dose required to produce the median effect.
Cells were infected with the T-cell tropic isolate HTLV-IIIB for 2 hours, and then cultured in varying concentrations of RV with or without nucleoside analogs. Virus replication was measured by p24 antigen production by ELISA using a standard commercial kit in the culture supernatants on days 7 and 10 after infection.
Activated PBMCs infected with HTLV-IIIB were cultured in the presence of ddI plus HU (100 μM) or RV (5 and 10 μM). […] Virus production in the presence of the different drug concentrations was evaluated on day 7 after infection.

[2] = test system: HTLV-IIIB; assay: p24 antigen in infected resting T-lymphocytes exposed to drugs for 6 days before PHA activation; format: cell-based, HIV-1; details: ddC 0.1 μM or AZT 4 μM in combination with RV
Method: The effect of RV and nucleoside analogues in infected resting T-lymphocytes was evaluated in the present example. Purified resting cells were used. Absence of activated lymphocytes in the preparation was determined by incubation of the cells in the presence of a monoclonal antibody directed against the low affinity IL-2 receptor CD25 (Pharmingen, San Diego, Calif.), and subsequent analysis by flow cytometry. […] Cells were infected with HTLV-IIIB at a multiplicity of infection of 10^4 TCID50/10^6 cells for 3 hours. A high multiplicity of infection (m.o.i.) was used because of a reported short half life of HIV-1 unintegrated DNA in infected resting lymphocytes. Infected cells were washed 3 times with PBS to remove virus excess and resuspended in 10% FBS RPMI medium supplemented with drugs. To ensure that any antiviral activity exerted by the drugs occurred during the resting state, drugs were removed six days after infection by washing with PBS 3 times, and cells were activated by culturing in the presence of PHA for 2 days. Cells were then cultured in IL-2 medium without drugs, and supernatants were monitored for the presence of p24 antigen. Cultures were maintained for 20 days.
Purified resting T-lymphocytes from a seronegative donor were infected with HTLV-IIIB at the high multiplicity of infection and cultured in the presence of 5 or 10 μM RV plus ddI (0, 0.25, 0.5 μM), ddC (0, 0.1 μM) or AZT (0, 4 μM) for 6 days. Concentrations used for ddC and AZT correspond to the highest, nontoxic concentration attainable in plasma of treated individuals. […] On day 6 after infection, drugs were washed away and cells were activated with PHA. The extent of viral replication was evaluated on day 6 (prior to PHA activation) and days 14 and 20 after infection. On day 6 very low amounts of p24 antigen could be detected under every condition tested, likely representing residual virus from the infecting inoculum. […] No toxicity was found by the MTT assay in uninfected culture controls treated with 5 μM RV and 0.5 μM ddI for 20 days under the same conditions.

[3] = test system: PHA-stimulated PBMCs; assay: MTT cell proliferation assay in PHA-stimulated PBMCs; format: cell-based, human; details: human, 5 days, 100 μM
Method: The effect of RV and […] on PBMC proliferation at the concentrations shown to enhance the anti-HIV effect of ddI were examined. Cellular proliferation in culture in the presence or absence of drugs was measured by commercial MTT assay, according to the manufacturer's instructions (Boehringer Mannheim). Cell viability was determined by trypan blue staining.
Proliferation was measured on PHA-stimulated PBMCs cultured in the presence of IL-2, 2 μM ddI, and RV or HU. The MTT assay was performed on days 2 and 5 (FIG. 8), and days 2 and 7 (FIG. 20) after the addition of the drugs. […] On day 5, RV at 10 μM inhibited proliferation by 30%, whereas HU inhibited proliferation by 40 to 50%, depending on the donor.
Proliferating PBMCs were cultured in the presence of RV or HU for 5 days. On day 2 and 5 an MTT assay and a ^3H-thymidine incorporation assay were performed. The MTT is a […] assay that measures cellular metabolic activity and directly correlates to the number of cells in the culture. The ^3H-thymidine incorporation assay relies on the incorporation of the radioactive nucleoside ^3H-thymidine into newly synthesized DNA. […] These differences between the effects of RV and HU were even more striking in the MTT and ^3H-thymidine incorporation assays conducted on day 5 (FIG. 12 and FIG. 13, respectively).

[4] = test system: PHA-activated PBMCs; assay: 3H-thymidine incorporation (DNA synthesis) assay in proliferating PBMCs; format: cell-based, human; details: HU 100 μM; day 2
Method: For example, a thymidine incorporation assay using PBMC's may be carried out as follows. PBMC's are suspended, then 0.1 ml (100,000) of cells are added to each designated well of a 96-well plate. The plates are placed into a 37° C., 5% CO2, 95% humid incubator for the predetermined incubation periods—normally 2 and 5 days. At the end of the incubation period, and at a standard time prior to harvesting the plate (6-18 hours), 1.0-1.5 μCi (20 μl of 50-75 mCi/ml in complete medium) of [^3H]-labeled methyl thymidine is added to each well of the assay. The plates are then incubated for the remaining 6-18 hours. At the end of the [^3H]-thymidine pulse, the plates are harvested onto filter paper using a semi-automated multi-well harvester. The filter paper containing bound DNA may be dried using either ethanol or by moderate microwave heating. The filter paper samples are counted in a scintillation counter using standard procedures.

[5] = test system: mutations 65R, 74V, 184V, and 115F in the RT gene; details: cited from earlier work

Cc1cn([C@H]2C[C@H](N=[N+]=[N-])[C@@H](CO)O2)c(=O)[nH]c1=O [AZT, 3′-azido-2′,3′-dideoxythymidine]
IC90 ([1]; Human immunodeficiency virus 1, IIIB, PBMC, 168 h, in combination with 5 μM RV, day 7): 0.015 µM | IC90 ([1]; Human immunodeficiency virus 1, IIIB, PBMC, 168 h, nucleoside analog alone, day 7): 0.025 µM | reduction of IC90 value ([1]; in combination with 5 μM RV): 1.6 fold | reduction of IC90 value ([1]; in the presence of 10 μM RV): 3.1 fold | virus replication after PHA activation [2]: failed to suppress virus replication

NC(=O)NO [HU, Hydroxyurea]
reduction of virus production ([1]; HU 100 μM alone, day 7): approximately 20% | inhibition at 100 µM ([1]; Human immunodeficiency virus 1, IIIB, PBMC, 168 h, 100 μM HU combined with 0.5 μM ddI, day 7, read-out: inhibition of virus replication): > 99% | inhibition at 100 µM ([1]; Human immunodeficiency virus 1, IIIB, PBMC, 168 h, 100 μM HU in combination with 0.25 μM ddI, day 7, read-out: inhibition of HIV-1 replication): 91% | inhibition of proliferation [3]: 40 to 50% | 3H-thymidine incorporation (DNA synthesis) [4]: much lower than the untreated control

Nc1nc(NC2CC2)c2ncn([C@H]3C=C[C@@H](CO)C3)c2n1 [abacavir, (1C, CiS)-4-(2-amino-6-(cyclopropylamino)—9H-purin-9-yL)-2-cyclopentene-1-methanol sulfate (salt) (2:1)]
resistance to the drug ([5]; mutants harboring 2 or 3 of these mutations): approximately 10 fold | decrease in susceptibility ([5]; single mutations 65R, 74V, 184V, and 115F): 2-3 fold

Nc1ccn([C@H]2CC[C@@H](CO)O2)c(=O)n1 [ddC, 2′,3′-dideoxycytosine]
reduction of IC90 value ([1]; in combination with 5 μM RV): 3.3 fold | IC90 ([1]; in combination with 5 μM RV, day 7): 0.08 µM | reduction of IC90 value ([1]; in the presence of 10 μM RV): 5.4 fold | IC90 ([1]; nucleoside analog alone, day 7): 0.27 µM | virus replication after PHA activation [2]: failed to suppress virus replication
